Results taken from ChEMBL document CHEMBL4507263, “Data for DCP probe BAY-474” (2021).

Key:
[1] = molecular target: 5-hydroxytryptamine receptor 6 (Homo sapiens, UniProt P50406); assay: GPCRScan assay: inhibition of 5-HT6; set-up: radioligand conc. used [nm] 2.0 – 4.0, parental cells stable HEK
[2] = test system: Tyrosine-protein kinase ABL1 (Homo sapiens), P00519 [F317L]; conditions: Compound concentration 1000.0 nM
[3] = molecular target: NUAK family SNF1-like kinase 1 (Homo sapiens) (UniProt O60285); conditions: Compound concentration 1000.0 nM
[4] = molecular target: Aurora kinase A (Homo sapiens) (UniProt O14965); conditions: Compound concentration 1000.0 nM
[5] = molecular target: Calcium/calmodulin-dependent protein kinase kinase 1 (Homo sapiens) (UniProt Q8N5S9); conditions: Compound concentration 1000.0 nM
[6] = molecular target: Cyclin-dependent kinase 7 (Homo sapiens) (UniProt P50613); conditions: Compound concentration 1000.0 nM
[7] = molecular target: Dual specificity protein kinase CLK2 (Homo sapiens) (UniProt P49760); conditions: Compound concentration 1000.0 nM
[8] = test system: Epidermal growth factor receptor (Homo sapiens), P00533 [UNDEFINED MUTATION]; conditions: Compound concentration 1000.0 nM
[9] = test system: Epidermal growth factor receptor (Homo sapiens), P00533 [L858R]; conditions: Compound concentration 1000.0 nM
[10] = molecular target: Ephrin type-A receptor 2 (Homo sapiens) (UniProt P29317); conditions: Compound concentration 1000.0 nM
[11] = molecular target: Receptor tyrosine-protein kinase erbB-4 (Homo sapiens) (UniProt Q15303); conditions: Compound concentration 1000.0 nM
[12] = molecular target: Mitogen-activated protein kinase 1 (Homo sapiens) (UniProt P28482); conditions: Compound concentration 1000.0 nM
[13] = molecular target: Rhodopsin kinase GRK1 (Homo sapiens) (UniProt Q15835); conditions: Compound concentration 1000.0 nM
[14] = molecular target: Interleukin-1 receptor-associated kinase 4 (Homo sapiens) (UniProt Q9NWZ3); conditions: Compound concentration 1000.0 nM
[15] = molecular target: Mitogen-activated protein kinase 8 (Homo sapiens) (UniProt P45983); conditions: Compound concentration 1000.0 nM
[16] = molecular target: Dual specificity mitogen-activated protein kinase kinase 1 (Homo sapiens) (UniProt Q02750); conditions: Compound concentration 1000.0 nM
[17] = molecular target: Mitogen-activated protein kinase kinase kinase 11 (Homo sapiens) (UniProt Q16584); conditions: Compound concentration 1000.0 nM
[18] = molecular target: Serine/threonine-protein kinase OSR1 (Homo sapiens) (UniProt O95747); conditions: Compound concentration 1000.0 nM
[19] = molecular target: Mitogen-activated protein kinase 14 (Homo sapiens) (UniProt Q16539); conditions: Compound concentration 1000.0 nM
[20] = molecular target: Mitogen-activated protein kinase 11 (Homo sapiens) (UniProt Q15759); conditions: Compound concentration 1000.0 nM
[21] = molecular target: Cyclin-dependent kinase 16 (Homo sapiens) (UniProt Q00536); conditions: Compound concentration 1000.0 nM
[22] = molecular target: Protein kinase C delta type (Homo sapiens) (UniProt Q05655); conditions: Compound concentration 1000.0 nM
[23] = test system: Proto-oncogene tyrosine-protein kinase receptor Ret (Homo sapiens), P07949 [V804L]; conditions: Compound concentration 1000.0 nM
[24] = molecular target: Receptor-interacting serine/threonine-protein kinase 4 (Homo sapiens) (UniProt P57078); conditions: Compound concentration 1000.0 nM
[25] = molecular target: Ribosomal protein S6 kinase alpha-4 (Homo sapiens) (UniProt O75676); conditions: Compound concentration 1000.0 nM
[26] = molecular target: NT-3 growth factor receptor (Homo sapiens) (UniProt Q16288); conditions: Compound concentration 1000.0 nM
[27] = molecular target: Vascular endothelial growth factor receptor 2 (Homo sapiens) (UniProt P35968); conditions: Compound concentration 1000.0 nM
[28] = molecular target: Ephrin type-A receptor 2 (Homo sapiens) (UniProt P29317); assay: EphA2 (h) Millipore kinase activity assay; conditions: Compound concentration 1.0 uM
[29] = molecular target: Ephrin type-A receptor 7 (Homo sapiens) (UniProt Q15375); assay: EphA7 (h) Millipore kinase activity assay; conditions: Compound concentration 1.0 uM
[30] = molecular target: Ephrin type-A receptor 8 (Homo sapiens) (UniProt P29322); assay: EphA8 (h) Millipore kinase activity assay; conditions: Compound concentration 1.0 uM
[31] = molecular target: Interleukin-1 receptor-associated kinase 4 (Homo sapiens) (UniProt Q9NWZ3); assay: IRAK4 (h) Millipore kinase activity assay; conditions: Compound concentration 1.0 uM
[32] = molecular target: Vascular endothelial growth factor receptor 2 (Homo sapiens) (UniProt P35968); assay: KDR (h) Millipore kinase activity assay; conditions: Compound concentration 1.0 uM
[33] = molecular target: Serine/threonine-protein kinase STK11 (Homo sapiens) (UniProt Q15831); assay: LKB1 (h) Millipore kinase activity assay; conditions: Compound concentration 1.0 uM
[34] = molecular target: Dual specificity mitogen-activated protein kinase kinase 7 (Homo sapiens) (UniProt O14733); assay: MKK7beta (h) Millipore kinase activity assay; conditions: Compound concentration 1.0 uM
[35] = molecular target: Muscle, skeletal receptor tyrosine-protein kinase (Homo sapiens) (UniProt O15146); assay: MuSK (h) Millipore kinase activity assay; conditions: Compound concentration 1.0 uM
[36] = molecular target: Serine/threonine-protein kinase pim-1 (Homo sapiens) (UniProt P11309); assay: Pim-1 (h) Millipore kinase activity assay; conditions: Compound concentration 1.0 uM
[37] = molecular target: Rho-associated protein kinase 1 (Homo sapiens) (UniProt Q13464); assay: ROCK-I (h) Millipore kinase activity assay; conditions: Compound concentration 1.0 uM
[38] = molecular target: Mitogen-activated protein kinase 11 (Homo sapiens) (UniProt Q15759); assay: SAPK2b (h) Millipore kinase activity assay; conditions: Compound concentration 1.0 uM
[39] = molecular target: Mitogen-activated protein kinase 12 (Homo sapiens) (UniProt P53778); assay: SAPK3 (h) Millipore kinase activity assay; conditions: Compound concentration 1.0 uM
[40] = molecular target: Serine/threonine-protein kinase TBK1 (Homo sapiens) (UniProt Q9UHD2); assay: TBK1 (h) Millipore kinase activity assay; conditions: Compound concentration 1.0 uM
hERG (KCNH2) = hERG (KCNH2) (Homo sapiens, UniProt Q12809); assay: Inhibition of Potassium Channel hERG at 10 µM in the Eurofins-Panlabs radioligand binding assay (Eurofins_assay_265900); set-up: ligand concentration 1.5 nM, non-specific ligand with concentration Astemizole, incubation time 60 min, incubation temperature 25 °C; conditions: HEK-293 cells expressing human recombinant hERG, probe [3H] Astemizole, compound concentration 10 uM
[41] = molecular target: D(3) dopamine receptor (Homo sapiens) (UniProt P35462); conditions: Compound concentration 10.0 uM
[42] = molecular target: Alpha-1A adrenergic receptor (Homo sapiens) (UniProt P35348); conditions: Compound concentration 10.0 uM
[43] = molecular target: D(1A) dopamine receptor (Homo sapiens) (UniProt P21728); conditions: Compound concentration 10.0 uM
[44] = molecular target: Muscarinic acetylcholine receptor M3 (Homo sapiens) (UniProt P20309); conditions: Compound concentration 10.0 uM

Sequence of Ephrin type-A receptor 2 (Homo sapiens) (P29317 whole entry): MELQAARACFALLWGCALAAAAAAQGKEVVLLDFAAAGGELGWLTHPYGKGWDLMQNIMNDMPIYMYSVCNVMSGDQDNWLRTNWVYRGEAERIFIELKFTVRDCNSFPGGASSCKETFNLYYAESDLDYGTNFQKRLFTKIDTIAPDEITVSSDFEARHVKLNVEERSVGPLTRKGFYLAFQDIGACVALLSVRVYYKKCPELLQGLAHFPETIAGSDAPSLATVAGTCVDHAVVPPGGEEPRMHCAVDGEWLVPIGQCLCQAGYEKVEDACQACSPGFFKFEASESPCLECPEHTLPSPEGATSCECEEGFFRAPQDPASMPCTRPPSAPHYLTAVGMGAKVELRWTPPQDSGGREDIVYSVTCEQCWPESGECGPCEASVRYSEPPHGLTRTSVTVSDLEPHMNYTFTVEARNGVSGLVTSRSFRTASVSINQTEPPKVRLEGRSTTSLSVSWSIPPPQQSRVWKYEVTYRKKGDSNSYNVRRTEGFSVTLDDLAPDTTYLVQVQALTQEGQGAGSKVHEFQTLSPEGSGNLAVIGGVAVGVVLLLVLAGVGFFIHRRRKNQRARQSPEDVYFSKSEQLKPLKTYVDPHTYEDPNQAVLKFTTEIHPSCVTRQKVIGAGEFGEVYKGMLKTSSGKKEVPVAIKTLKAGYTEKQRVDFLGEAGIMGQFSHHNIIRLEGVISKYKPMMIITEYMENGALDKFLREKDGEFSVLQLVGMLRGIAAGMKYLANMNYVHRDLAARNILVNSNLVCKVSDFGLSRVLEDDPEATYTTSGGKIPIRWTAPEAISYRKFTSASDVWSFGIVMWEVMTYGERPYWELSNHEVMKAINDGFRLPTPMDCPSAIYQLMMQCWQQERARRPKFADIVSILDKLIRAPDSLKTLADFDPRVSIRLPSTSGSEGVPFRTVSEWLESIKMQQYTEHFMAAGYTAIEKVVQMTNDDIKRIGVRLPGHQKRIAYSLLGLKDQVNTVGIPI
Sequence of Mitogen-activated protein kinase 11 (Homo sapiens) (Q15759 whole entry): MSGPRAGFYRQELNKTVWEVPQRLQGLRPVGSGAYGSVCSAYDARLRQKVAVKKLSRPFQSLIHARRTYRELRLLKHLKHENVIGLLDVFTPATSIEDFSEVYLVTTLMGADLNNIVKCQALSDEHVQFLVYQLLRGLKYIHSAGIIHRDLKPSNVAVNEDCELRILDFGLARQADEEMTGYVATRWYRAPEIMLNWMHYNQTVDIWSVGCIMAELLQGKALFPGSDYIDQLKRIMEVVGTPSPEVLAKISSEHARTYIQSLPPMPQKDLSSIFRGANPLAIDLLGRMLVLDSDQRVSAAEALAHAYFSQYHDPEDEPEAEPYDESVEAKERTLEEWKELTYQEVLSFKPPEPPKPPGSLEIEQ
Sequence of Interleukin-1 receptor-associated kinase 4 (Homo sapiens) (Q9NWZ3 whole entry): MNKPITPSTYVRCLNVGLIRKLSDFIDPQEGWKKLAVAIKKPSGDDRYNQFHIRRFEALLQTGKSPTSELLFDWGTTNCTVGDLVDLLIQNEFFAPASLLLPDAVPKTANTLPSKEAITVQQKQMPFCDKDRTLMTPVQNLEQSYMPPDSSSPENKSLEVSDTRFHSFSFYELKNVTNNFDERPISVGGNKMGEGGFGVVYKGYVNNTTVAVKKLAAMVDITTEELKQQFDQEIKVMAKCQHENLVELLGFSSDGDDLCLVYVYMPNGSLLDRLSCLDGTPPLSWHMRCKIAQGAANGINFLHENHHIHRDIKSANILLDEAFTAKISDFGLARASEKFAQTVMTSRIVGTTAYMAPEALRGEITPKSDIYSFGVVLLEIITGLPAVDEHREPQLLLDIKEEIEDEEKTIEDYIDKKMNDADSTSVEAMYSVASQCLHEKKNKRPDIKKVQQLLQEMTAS
Sequence of Vascular endothelial growth factor receptor 2 (Homo sapiens) (P35968 whole entry): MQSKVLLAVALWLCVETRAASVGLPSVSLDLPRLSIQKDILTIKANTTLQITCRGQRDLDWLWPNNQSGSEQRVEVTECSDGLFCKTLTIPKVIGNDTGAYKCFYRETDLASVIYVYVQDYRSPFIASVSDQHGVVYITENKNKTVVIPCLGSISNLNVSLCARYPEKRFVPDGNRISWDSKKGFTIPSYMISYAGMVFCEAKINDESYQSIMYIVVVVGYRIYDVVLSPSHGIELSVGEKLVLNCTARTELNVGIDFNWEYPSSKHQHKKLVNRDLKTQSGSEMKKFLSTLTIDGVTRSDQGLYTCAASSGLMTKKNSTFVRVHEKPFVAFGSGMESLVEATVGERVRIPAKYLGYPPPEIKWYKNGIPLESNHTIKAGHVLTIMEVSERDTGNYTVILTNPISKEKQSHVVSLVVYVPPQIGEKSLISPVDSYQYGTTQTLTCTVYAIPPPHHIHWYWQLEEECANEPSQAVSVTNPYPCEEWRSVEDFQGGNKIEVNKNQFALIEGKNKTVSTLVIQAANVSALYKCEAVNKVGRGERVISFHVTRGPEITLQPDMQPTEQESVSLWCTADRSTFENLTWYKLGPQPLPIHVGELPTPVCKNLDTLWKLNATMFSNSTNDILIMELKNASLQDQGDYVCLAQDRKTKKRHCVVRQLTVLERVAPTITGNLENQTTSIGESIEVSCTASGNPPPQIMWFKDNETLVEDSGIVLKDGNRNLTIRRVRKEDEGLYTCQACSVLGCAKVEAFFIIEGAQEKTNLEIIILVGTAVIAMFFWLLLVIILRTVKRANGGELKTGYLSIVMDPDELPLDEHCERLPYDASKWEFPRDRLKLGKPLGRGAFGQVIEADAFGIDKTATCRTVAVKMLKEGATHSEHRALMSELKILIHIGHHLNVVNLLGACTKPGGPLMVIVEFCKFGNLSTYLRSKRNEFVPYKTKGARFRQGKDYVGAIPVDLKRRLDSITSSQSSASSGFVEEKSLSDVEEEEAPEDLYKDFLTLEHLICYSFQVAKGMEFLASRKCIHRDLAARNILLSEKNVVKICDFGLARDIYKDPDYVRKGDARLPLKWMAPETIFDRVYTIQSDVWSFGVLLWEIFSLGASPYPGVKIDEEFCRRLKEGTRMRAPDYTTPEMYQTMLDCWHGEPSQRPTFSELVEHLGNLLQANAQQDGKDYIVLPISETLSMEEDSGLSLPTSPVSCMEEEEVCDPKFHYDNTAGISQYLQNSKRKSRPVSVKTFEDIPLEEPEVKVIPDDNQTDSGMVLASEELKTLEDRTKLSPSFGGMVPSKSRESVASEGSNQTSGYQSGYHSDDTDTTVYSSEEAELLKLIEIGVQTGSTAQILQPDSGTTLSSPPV
Sequence of Cyclin-dependent kinase 16 (Homo sapiens) (Q00536 whole entry): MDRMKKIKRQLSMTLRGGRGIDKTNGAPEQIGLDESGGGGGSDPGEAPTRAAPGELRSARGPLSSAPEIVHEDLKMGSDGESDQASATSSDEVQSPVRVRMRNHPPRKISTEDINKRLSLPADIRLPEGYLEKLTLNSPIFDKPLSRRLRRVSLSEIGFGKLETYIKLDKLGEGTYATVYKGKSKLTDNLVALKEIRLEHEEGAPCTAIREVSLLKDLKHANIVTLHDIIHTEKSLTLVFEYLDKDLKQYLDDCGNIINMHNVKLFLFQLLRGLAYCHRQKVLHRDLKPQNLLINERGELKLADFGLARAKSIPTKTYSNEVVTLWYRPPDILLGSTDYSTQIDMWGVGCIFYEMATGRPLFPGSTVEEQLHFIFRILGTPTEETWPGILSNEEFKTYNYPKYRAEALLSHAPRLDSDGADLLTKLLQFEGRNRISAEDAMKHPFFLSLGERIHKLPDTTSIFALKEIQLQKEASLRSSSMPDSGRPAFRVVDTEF
Sequence of Ephrin type-A receptor 8 (Homo sapiens) (P29322 whole entry): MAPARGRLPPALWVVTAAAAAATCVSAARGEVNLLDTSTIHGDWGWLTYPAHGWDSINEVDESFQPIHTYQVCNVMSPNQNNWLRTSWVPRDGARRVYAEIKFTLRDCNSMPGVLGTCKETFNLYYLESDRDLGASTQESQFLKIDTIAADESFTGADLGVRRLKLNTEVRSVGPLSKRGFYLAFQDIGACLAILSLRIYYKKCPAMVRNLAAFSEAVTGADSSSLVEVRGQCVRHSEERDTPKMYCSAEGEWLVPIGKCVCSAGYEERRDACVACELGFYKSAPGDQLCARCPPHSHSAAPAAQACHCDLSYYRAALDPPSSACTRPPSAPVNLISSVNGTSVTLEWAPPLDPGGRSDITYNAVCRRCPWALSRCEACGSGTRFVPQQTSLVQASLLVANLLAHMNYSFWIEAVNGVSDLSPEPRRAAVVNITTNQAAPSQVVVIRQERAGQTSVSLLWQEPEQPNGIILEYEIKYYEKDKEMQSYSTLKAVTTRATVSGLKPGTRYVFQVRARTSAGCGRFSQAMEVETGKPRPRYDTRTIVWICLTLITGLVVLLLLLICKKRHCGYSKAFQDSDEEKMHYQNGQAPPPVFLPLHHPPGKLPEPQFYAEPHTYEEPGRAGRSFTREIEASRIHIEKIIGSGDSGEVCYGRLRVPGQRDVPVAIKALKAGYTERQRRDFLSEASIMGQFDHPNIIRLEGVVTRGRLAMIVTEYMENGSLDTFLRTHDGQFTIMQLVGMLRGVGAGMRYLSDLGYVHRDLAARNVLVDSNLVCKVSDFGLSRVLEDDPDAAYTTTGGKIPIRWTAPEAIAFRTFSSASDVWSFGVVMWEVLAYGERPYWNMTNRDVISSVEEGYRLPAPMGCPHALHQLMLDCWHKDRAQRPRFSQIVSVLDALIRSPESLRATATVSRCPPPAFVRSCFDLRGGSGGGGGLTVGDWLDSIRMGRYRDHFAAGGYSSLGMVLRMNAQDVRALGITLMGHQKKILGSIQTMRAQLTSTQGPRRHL
Sequence of Mitogen-activated protein kinase 14 (Homo sapiens) (Q16539 whole entry): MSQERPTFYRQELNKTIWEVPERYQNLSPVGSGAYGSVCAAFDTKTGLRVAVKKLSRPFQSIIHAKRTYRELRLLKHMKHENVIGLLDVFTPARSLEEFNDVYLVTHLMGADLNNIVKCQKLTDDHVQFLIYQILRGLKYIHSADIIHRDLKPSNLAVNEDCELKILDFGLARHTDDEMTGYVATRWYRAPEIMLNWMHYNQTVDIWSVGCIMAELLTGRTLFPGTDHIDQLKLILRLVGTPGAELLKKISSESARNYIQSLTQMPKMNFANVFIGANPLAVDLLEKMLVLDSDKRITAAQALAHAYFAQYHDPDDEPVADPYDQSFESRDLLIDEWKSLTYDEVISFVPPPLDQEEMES

CC1=C(C#N)[C@@H](c2ccc3[nH]nc(C)c3c2)C(C#N)=C(c2ccc(Cl)cc2)N1 [BAY-827]
Ki [1]: 674 nM | residual activity [2]: 94.2% | residual activity [3]: 100% | residual activity [4]: 100% | residual activity [5]: 93.7% | residual activity [6]: 100% | residual activity [7]: 100% | residual activity [8]: 100% | residual activity [9]: 89.5% | residual activity [10]: 100% | residual activity [11]: 100% | residual activity [12]: 100% | residual activity [13]: 65.5% | residual activity [14]: 100% | residual activity [15]: 65.2% | residual activity [16]: 100% | residual activity [17]: 100% | residual activity [18]: 100% | residual activity [19]: 100% | residual activity [20]: 99.8% | residual activity [21]: 88.9% | residual activity [22]: 86.3% | residual activity [23]: 96.4% | residual activity [24]: 71.8% | residual activity [25]: 81.4% | residual activity [26]: 100% | residual activity [27]: 96.3%

CC1=C(C#N)C(c2ccc3[nH]nc(C)c3c2)C(C#N)=C(C)N1 [BAY-474]
inhibition [28]: 13% | inhibition [29]: -2% | inhibition [30]: -1% | inhibition [31]: 0% | inhibition [32]: 4% | inhibition [33]: -8% | inhibition [34]: 13% | inhibition [35]: 19% | inhibition [36]: -3% | inhibition [37]: 1% | inhibition [38]: -10% | inhibition [39]: 8% | inhibition [40]: -6% | inhibition at 60 min, 10 µM (hERG (KCNH2)): 7% (not active) | inhibition [41]: 18.1% | inhibition [42]: 15.6% | inhibition [43]: 3% | inhibition [44]: 2%
